From patent US10981932B2, “Macrocyclic indole derivatives” (Bayer Aktiengesellschaft, priority 2016, dated 2021)
Where a name gives a salt, the structure may show the parent alone. Read-outs that look alike come from different tables or passages of the source.

Assays:
A2780 = assay: Anti-proliferative effect (CellTiter-Glo, 72 h), A2780; format: cell-based; conditions: A2780 cells, median, read-out: IC50 antiproliferation assay A2780 [M] (median)
In short: (§1)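 Viable cells quantified with CellTiter-Glo after 72 h at 37 °C; rim wells excluded; day 0 plate as baseline.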

SUDHL10 [1] = assay: Anti-proliferative effect (CellTiter-Glo, 72 h), SUDHL10; format: cell-based; conditions: SUDHL10 cells, antiproliferation, median, read-out: Antiproli SUDHL10 [M] (median)
In short: as §1

SUDHL5 [2] = assay: Induction of cytotoxicity (CellTiter-Glo, 5 h), SUDHL5
SUDHL5 [3] = assay: Induction of caspase-3/7 activity (Caspase-Glo 3/7), SUDHL5; format: cell-based; conditions: caspase-3/7 induction, SUDHL5 cells, 3 h treatment, median
In short: (§2)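 Caspase-Glo 3/7 luminescence, 3 h compound exposure, 37 °C, humidified. Minus medium-only blank. EC50 fit: C0=1, plateau = reference max induction.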

MCL-1 = MCL-1 (Homo sapiens, UniProt Q07820); assay: Protein-protein interaction assay MCL-1/Noxa BH3 peptide (MCL-1 assay), TR-FRET; format: binding; conditions: MBP-MCL-1 / Noxa BH3-derived peptide, median
Chain of MCL-1 (Q07820 whole entry): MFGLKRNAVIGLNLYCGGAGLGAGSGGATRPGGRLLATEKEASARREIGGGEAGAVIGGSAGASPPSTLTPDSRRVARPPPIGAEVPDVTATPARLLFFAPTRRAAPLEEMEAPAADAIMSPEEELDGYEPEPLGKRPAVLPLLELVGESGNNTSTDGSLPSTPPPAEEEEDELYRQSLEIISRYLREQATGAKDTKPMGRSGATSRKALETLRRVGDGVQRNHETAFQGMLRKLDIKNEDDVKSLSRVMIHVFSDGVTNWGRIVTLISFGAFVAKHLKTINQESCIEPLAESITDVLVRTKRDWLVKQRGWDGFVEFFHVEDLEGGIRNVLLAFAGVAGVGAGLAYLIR
In short: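 Displacement of the biotinylated Noxa BH3 peptide from MBP-tagged human MCL-1 (1 nM) is detected by time-resolved FRET. Compounds are tested in duplicate across eleven concentrations up to 20 μM, incubated 1 h at 22 °C and overnight at 4 °C, and IC50 is fitted with a four-parameter equation.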

SUDHL5 [4] = assay: Anti-proliferative effect (CellTiter-Glo, 72 h), SUDHL5; format: cell-based; conditions: SUDHL5 cells, antiproliferation, median, read-out: Antiproli SUDHL5 [M] (median)
In short: as §1

SUDHL10 [5] = assay: Induction of cytotoxicity (CellTiter-Glo, 5 h), SUDHL10
SUDHL10 [6] = assay: Induction of caspase-3/7 activity (Caspase-Glo 3/7), SUDHL10; format: cell-based; conditions: caspase-3/7 induction, SUDHL10 cells, 3 h treatment, median
In short: as §2

[7] = Homo sapiens, SU-DHL10, 72 h, 72 h incubation
[8] = Homo sapiens, SU-DHL-5, 5 h, read-out: Cytotox SUDHL5 [M] (median), SUDHL5 cells, cytotoxicity induction, CellTiter-Glo, 5 h incubation, median
[9] = Homo sapiens, SU-DHL-5, 72 h, 72 h incubation
[10] = Homo sapiens, SU-DHL10, 5 h, read-out: Cytotox SUDHL10 [M] (median), SUDHL10 cells, cytotoxicity induction, CellTiter-Glo, 5 h incubation, median
[11] = Homo sapiens, SU-DHL10, 72 h, 72 h
[12] = Homo sapiens, SU-DHL-5, 5 h, read-out: Cytotox SUDHL5 [M] (median), SUDHL5 cells, cytotoxicity induction, CellTiter-Glo, 5 h, median
[13] = Homo sapiens, SU-DHL-5, 72 h, 72 h
[14] = Homo sapiens, SU-DHL10, 5 h, read-out: Cytotox SUDHL10 [M] (median), SUDHL10 cells, cytotoxicity induction, CellTiter-Glo, 5 h, median
[15] = read-out: Cytotox SUDHL5 [M] (median), SUDHL5 cells, cytotoxicity induction, CellTiter-Glo, 5 h incubation, median

| SMILES | IC50 (A2780; Homo sapiens, A2780, 72 h) | IC50 (SUDHL10 [1]; [7]) | IC50 (SUDHL5 [2]; [8]) | EC50 (SUDHL5 [3]; Homo sapiens, SU-DHL-5, 3 h) | IC50 (MCL-1) | IC50 (SUDHL5 [4]; [9]) | IC50 (SUDHL10 [5]; [10]) | EC50 (SUDHL10 [6]; Homo sapiens, SU-DHL10, 3 h) | also measured |
| --- | --- | --- | --- | --- | --- | --- | --- | --- | --- |
| CN1CCCn2c(C(=O)O)c(CCCOc3cccc4ccccc34)c3cccc(c32)-c2c(CN3CCOCC3=O)nn(C)c2C1 (racemic) [Example 157, (rac)-7,9-dimethyl-1-[3-(naphthalen-1-yloxy)propyl]-11-[(3-oxomorpholin-4-yl)methyl]-4,5,6,7,8,9-hexahydropyrazolo[3′,4′:7,8][1,5]diazecino[9,10,1-hi]indole-2-carboxylic Acid] | > 3.3e-05 M | > 3.3e-05 M | > 3.3e-05 M | > 33 µM | 0.289 µM | > 3.3e-05 M | > 3.3e-05 M | > 33 µM | – |
| Cn1nc(COc2ccc(NS(C)(=O)=O)cc2)c2c1COCCCCn1c(C(=O)O)c(CCCOc3cccc4ccccc34)c3cccc-2c31 (single isomer, unassigned; enantiomer 2) [Example 323, 1-methyl-3-({4-[(methylsulfonyl)amino]phenoxy}methyl)-7-[3-(naphthalen-1-yloxy)propyl]-1,10,11,12,13,15-hexahydropyrazolo[4′,3′:9,10][1,6]oxazacycloundecino[8,7,6-hi]indole-8-carboxylic acid-N-ethylethanamine Salt (Enantiomer 2)] | – | – | – | – | 0.32 µM | – | – | – | IC50 (A2780): 2.18e-05 M; IC50 (SUDHL10 [1]; 72 h): 1.36e-05 M; IC50 (SUDHL5 [2]; read-out: Cytotox SUDHL5 [M] (median), SUDHL5 cells, cytotoxicity induction, CellTiter-Glo, 5 h, median): > 3.3e-05 M; EC50 (SUDHL5 [3]): > 33 µM; IC50 (SUDHL5 [4]; 72 h): 1.32e-05 M; IC50 (SUDHL10 [5]; read-out: Cytotox SUDHL10 [M] (median), SUDHL10 cells, cytotoxicity induction, CellTiter-Glo, 5 h, median): > 3.3e-05 M; EC50 (SUDHL10 [6]): > 33 µM |
| Cn1nc(CN2CCCCC2=O)c2c1COCCCCn1c(C(=O)O)c(CCCOc3cccc4ccccc34)c3cccc-2c31 (single isomer, unassigned; enantiomer 1) [Example 326, 1-methyl-7-[3-(naphthalen-1-yloxy)propyl]-3-[(2-oxopiperidin-1-yl)methyl]-1,10,11,12,13,15-hexahydropyrazolo[4′,3′:9,10][1,6]oxazacycloundecino[8,7,6-hi]indole-carboxylic Acid (Enantiomer 1)] | > 3.3e-05 M | – | – | > 33 µM | 0.515 µM | – | – | > 33 µM | IC50 (SUDHL10 [1]; [11]): 1.14e-05 M; IC50 (SUDHL5 [2]; [12]): > 3.3e-05 M; IC50 (SUDHL5 [4]; [13]): 3.18e-05 M; IC50 (SUDHL10 [5]; [14]): > 3.3e-05 M |
| COCc1c2c(nn1C)COCCCCn1c(C(=O)O)c(CCCOc3cccc4c3CCCC4)c3cccc-2c31 (racemic) [Example 105, (rac)-3-(methoxymethyl)-2-methyl-7-[3-(5,6,7,8-tetrahydronaphthalen-1-yloxy)propyl]-2,10,11,12,13,15-hexahydropyrazolo[4′,3′:9,10][1,6]oxazacycloundecino[8,7,6-hi]indole-8-carboxylic Acid] | 1.49e-05 M | 9.89e-06 M | 7.19e-06 M | 8.27 µM | 0.00268 µM | 1.01e-05 M | 1.92e-05 M | 23.9 µM | – |
| CCNCc1nn(C)c2c1-c1cccc3c(CCCOc4cccc5ccccc45)c(C(=O)O)n(c13)CCCCOC2 (racemic) [Example 156, (rac)-3-[(ethylamino)methyl]-1-methyl-7-[3-(naphthalen-1-yloxy)propyl]-1,10,11,12,13,15-hexahydropyrazolo[4′,3′:9,10][1,6]oxazacycloundecino[8,7,6-hi]indole-8-carboxylic Acid] | > 3.3e-05 M | 2.23e-05 M | > 3.3e-05 M | > 33 µM | 0.152 µM | > 3.3e-05 M | > 3.3e-05 M | > 33 µM | – |
| Cn1nc(CC(F)(F)F)c2c1COCCCCn1c(C(=O)O)c(CCCOc3cccc4ccccc34)c3cccc-2c31 (racemic) [Example 219, (rac)-1-methyl-7-[3-(naphthalen-1-yloxy)propyl]-3-(2,2,2-trifluoroethyl)-1,10,11,12,13,15-hexahydropyrazolo[4′,3′:9,10][1,6]oxazacycloundecino[8,7,6-hi]indole-8-carboxylic Acid] | > 3.3e-05 M | 1.36e-05 M | 9.71e-06 M | 12.8 µM | 0.014 µM | 9.95e-06 M | 2.47e-05 M | > 33 µM | – |
| CCCc1nn(C)c2c1-c1c(C)ccc3c(CCCOc4cccc5ccccc45)c(C(=O)O)n(c13)CCCCOC2 (single isomer, unassigned; enantiomer 1) [Example 188, 1,4-dimethyl-7-[3-(naphthalen-1-yloxy)propyl]-3-propyl-1,10,11,12,13,15-hexahydropyrazolo[4′,3′:9,10][1,6]oxazacycloundecino[8,7,6-hi]indole-8-carboxylic acid-N-ethylethanamine Salt (Enantiomer 1)] | 2.42e-05 M | – | – | – | 0.00146 µM | – | – | – | IC50 (SUDHL10 [1]; 72 h incubation): 9.83e-06 M; IC50 (SUDHL5 [2]; [15]): 2.95e-06 M; EC50 (SUDHL5 [3]): 2.82 µM; IC50 (SUDHL5 [4]; 72 h incubation): 3.39e-06 M; IC50 (SUDHL10 [5]; read-out: Cytotox SUDHL10 [M] (median), SUDHL10 cells, cytotoxicity induction, CellTiter-Glo, 5 h incubation, median): 6.61e-06 M; EC50 (SUDHL10 [6]): 7.76 µM |
| O=C(O)c1c(CCCOc2cccc3ccccc23)c2cccc3c2n1CCCCOCc1nn2c(c1-3)COCC2 (single isomer, unassigned) [Example 251, 1-[3-(naphthalen-1-yloxy)propyl]-4,5,6,7,12,13-hexahydro-9H,15H-[1,4]oxazino[4″,3″:1′,5]pyrazolo[4′,3′:9,10][1,6]oxazacycloundecino[8,7,6-hi]indole-2-carboxylic acid-N-ethylethanamine Salt] | 2.84e-05 M | 5.15e-06 M | – | – | 0.0484 µM | 6.23e-06 M | > 3.3e-05 M | > 33 µM | IC50 (SUDHL5 [2]; [15]): > 3.3e-05 M; EC50 (SUDHL5 [3]): > 33 µM |
| CC(=O)NCc1nn(C)c2c1-c1cccc3c(CCCOc4cccc5ccccc45)c(C(=O)O)n(c13)CCCCOC2 (racemic) [Example 339, (rac)-3-[(acetylamino)methyl]-1-methyl-7-[3-(naphthalen-1-yloxy)propyl]-1,10,11,12,13,15-hexahydropyrazolo[4′,3′:9,10][1,6]oxazacycloundecino[8,7,6-hi]indole-8-carboxylic Acid] | > 3.3e-05 M | – | – | > 33 µM | 0.032 µM | – | – | > 33 µM | IC50 (SUDHL10 [1]; [11]): > 3.3e-05 M; IC50 (SUDHL5 [2]; [12]): > 3.3e-05 M; IC50 (SUDHL5 [4]; [13]): > 3.3e-05 M; IC50 (SUDHL10 [5]; [14]): > 3.3e-05 M |
| COc1ccc2c(CCCOc3cccc4ccccc34)c(C(=O)O)n3c2c1-c1c(nn(C)c1C)COCCCC3 (racemic) [Example 349, (rac)-4-methoxy-2,3-dimethyl-7-[3-(naphthalen-1-yloxy)propyl]-2,10,11,12,13,15-hexahydropyrazolo[4′,3′:9,10][1,6]oxazacycloundecino[8,7,6-hi]indole-8-carboxylic Acid] | > 3.3e-05 M | – | – | 31 µM | 0.0819 µM | – | – | > 33 µM | IC50 (SUDHL10 [1]; [11]): 1.67e-05 M; IC50 (SUDHL5 [2]; [12]): 2.43e-05 M; IC50 (SUDHL5 [4]; [13]): 1.86e-05 M; IC50 (SUDHL10 [5]; [14]): > 3.3e-05 M |
| CCn1nc(C2CC2)c2c1COCCCCn1c(C(=O)O)c(CCCOc3cccc4ccccc34)c3cccc-2c31 (racemic) [Example 088, (rac)-3-Cyclopropyl-1-ethyl-7-[3-(naphthalen-1-yloxy)propyl]-1,10,11,12,13,15-hexahydropyrazolo[4′,3′:9,10][1,6]oxazacycloundecino[8,7,6-hi]indole-8-carboxylic Acid] | 2.35e-05 M | 2.67e-05 M | 1.1e-05 M | 13.5 µM | 0.00694 µM | 1.76e-05 M | > 3.3e-05 M | > 33 µM | – |
